According to patent US20200370050A1, “CELL PROLIFERATION INHIBITOR AND CANCER TREATMENT OR PREVENTION PHARMACEUTICAL COMPOSITION INCLUDING CELL PROLIFERATION INHIBITOR” (priority 2017, published 2020):

Tests used:
[1] = system: HCT116 cells; test: Effect of CRAF protein fragment on cell growth, number of living cells by WST assay (CCK-8); format: cell-based, human; conditions: 1.0×10^4 cells seeded (similar tendency at 2.0×10^4), transfected with pcDNA-hRAF384, 100 ng plasmid per well, 0-96 h, control empty vector pcDNA3.1(+), FIG. 5 part A
Description: (§1) The CRAF protein fragment expression plasmid pcDNA-hRAF384 (5807 bp) was prepared by cloning the region of positions 332 to 718 of the human CRAF gene (SEQ ID NO: 6) downstream of a CMV (cytomegalovirus) promoter in the vector pcDNA3.1(+) (Thermo Fisher Scientific). The plasmid expresses a CRAF protein fragment (a polypeptide having the amino acid sequence set forth in SEQ ID NO: 9) of positions 56 to 184 of the human CRAF protein (SEQ ID NO: 5).
HCT116 cells (KRAS mutation-positive human colon cancer cells) were obtained from ATCC. Since HCT116 cells have KRAS in which the position 13 amino acid glycine (G) is activatingly mutated to aspartic acid (D), the RAS/RAF/ME/ERK signaling cascade is activated in HCT116 cells.
(§2) The HCT116 or DLD-1 cells were seeded at 1.0×10^4 or 2.0 x 10^4 cells per well of 96-well plates and cultured in a McCoy's SA medium in an environment of 5% CO2 at 37° C. for 24 h. The cultured cells were transfected with the CRAF protein fragment expression plasmid pcDNA-hRAF384 using Lipofectamine 3000 (Thermo Fisher Scientific). As a control, the cells were transfected with the empty vector pcDNA3.1(+) (Thermo Fisher Scientific). […]
(§3) Immediately (0 h), 24 h, 48 h, 72 h, and 96 h after the cultivation, the cells were collected and measured for the number of living cells by WST assay. […]

[2] = system: DLD-1 cells; test: as above; format: cell-based, human; conditions: 1.0×10^4 cells seeded (similar tendency at 2.0×10^4), transfected with pcDNA-hRAF384, 100 ng plasmid per well, 0-96 h, control empty vector pcDNA3.1(+), FIG. 5 part B
Description: as §1
DLD-1 cells (KRAS mutation-positive human colon cancer cells) were obtained from JCRB Cell Bank of National Institutes of Biomedical innovation, Health and Nutrition. Since DLD-1 cells have KRAS in which the position 13 amino acid glycine (G) is activatingly mutated to aspartic acid (D), the RAS/RAF/MEK/ERK signaling cascade is activated in DLD-1 cells.
as §2, §3

CRAF protein fragment: Polypeptide of SEQ ID NO: 9, positions 56 to 184 of human CRAF protein, expressed from plasmid pcDNA-hRAF384
cell growth (number of living cells) as compared to the control [1]: reduced growth | cell growth (number of living cells) as compared to the control [2]: reduced growth
